Source: US7910780B2, “Method for purifying terephthalaldehyde” (LG Chem, Ltd., priority 2006, dated 2011)

Assays:
[1] = Solubility of terephthalaldehyde and major impurities in p-xylene and DMSO; conditions: p-xylene, organic solvent or mixture
physchem = conditions: organic solvent or mixture

solubility ([1]; 25 °C, in p-xylene (25° C.))	solubility ([1]; 100 °C, in p-xylene (100° C.))	solubility (physchem; 100 °C)	solubility (physchem; 25 °C)	SMILES
< 2000 µg/mL	< 20000 µg/mL			O=Cc1ccc(C(=O)O)cc1 [4-CBA, 4-carboxybenzaldehyde]
		< 20000 µg/mL		O=C(O)c1ccc(C(=O)O)cc1 [TPA, terephthalic acid]
		< 20000 µg/mL	< 2000 µg/mL	O=Cc1ccc(O)cc1 [4-HBA, 4-hydroxybenzaldehyde]
		< 5000 µg/mL	< 5000 µg/mL	Oc1ccc(O)cc1 [HQ, hydroquinone]
